Measurements as given in patent US6881741B2 (ViroChem Pharma Inc., priority 2001, dated 2005).
Structures can show the parent of a compound that is named as a salt.

Target: recombinant HCV NS5B (HCV RNA-dependent RNA polymerase) (Hepatitis C virus genotype 1b, UniProt P26663)
Assay: biochemical
Conditions: HCV polymerase activity, list of compounds of Example 27; read-out: IC50 (polymerase activity)

recombinant HCV NS5B (HCV RNA-dependent RNA polymerase), sequence (P26663 2420-3010 limits assumed): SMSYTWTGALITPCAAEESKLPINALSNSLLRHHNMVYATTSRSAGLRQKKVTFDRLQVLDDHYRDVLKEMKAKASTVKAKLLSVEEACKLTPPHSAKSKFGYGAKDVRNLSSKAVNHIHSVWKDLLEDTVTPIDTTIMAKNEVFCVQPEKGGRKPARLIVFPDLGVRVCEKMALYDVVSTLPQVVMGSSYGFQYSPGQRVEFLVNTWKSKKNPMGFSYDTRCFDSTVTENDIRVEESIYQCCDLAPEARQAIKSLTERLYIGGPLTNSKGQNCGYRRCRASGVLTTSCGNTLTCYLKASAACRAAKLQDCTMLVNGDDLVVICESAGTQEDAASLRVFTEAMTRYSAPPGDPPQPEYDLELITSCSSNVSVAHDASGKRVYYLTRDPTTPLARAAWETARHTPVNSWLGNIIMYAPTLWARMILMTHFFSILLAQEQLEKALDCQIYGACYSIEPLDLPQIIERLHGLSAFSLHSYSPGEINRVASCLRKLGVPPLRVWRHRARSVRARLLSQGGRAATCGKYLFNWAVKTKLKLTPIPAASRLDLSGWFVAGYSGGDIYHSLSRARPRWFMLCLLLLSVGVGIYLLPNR

Question: With `CC(=O)N(Cc1ccccc1C)c1cc(-c2ccccc2)sc1C(=O)O` [Compound 426, 3-[ACETYL-(2-METHYL-BENZYL)-AMINO]- 5-PHENYL-THIOPHENE-2-CARBOXYLIC ACID] as the molecule, how does the IC50 read?
Answer: > 20 µM

Question: With `CCC(=O)N(Cc1ccccc1C)c1cc(-c2ccccc2)sc1C(=O)O` [Compound 427, 3-[(2-METHYL-BENZYL)-PROPIONYL- AMINO]-5-PHENYL-THIOPHENE-2- CARBOXYLIC ACID] as the molecule, how does the IC50 read?
Answer: 5 to 20 µM

Question: With `Cc1ccc(C(=O)N(c2cc(-c3ccccc3)sc2C(=O)O)C(C)C)c(C#N)c1` [Compound 431, 3-[(2-CYANO-4-METHYL-BENZOYL)- ISOPROPYL-AMINO]-5-PHENYL- THIOPHENE-2-CARBOXYLIC ACID] as the molecule, how does the IC50 read?
Answer: 5 to 20 µM

Question: `O=C(O)c1sc(-c2ccccc2)cc1N(Cc1ccc(Cl)cc1)C(=O)CC1CCCC1` [Compound 463, 3-[(4-CHLORO-BENZYL)-(2- CYCLOPENTYL-ACETYL)-AMINO]-5- PHENYL-THIOPHENE-2-CARBOXYLIC ACID] was tested. Which IC50 did it give?
Answer: < 5 µM

Question: With `O=C(O)c1sc(-c2ccccc2)cc1N(C(=O)c1ccc(Cl)cc1Cl)C(CO)CO` [Compound 518, 3-[(2,4-DICHLORO-BENZOYL)-(2- HYDROXY-1-HYDROXYMETHYL-ETHYL)- AMINO]-5-PHENYL-THIOPHENE-2- CARBOXYLIC ACID] as the molecule, how does the IC50 read?
Answer: < 5 µM

Question: Which IC50 does the source give for `CC(C)N(C(=O)C1CCC(Cl)CC1)c1cc(-c2ccccc2)sc1C(=O)O` (stereo not drawn) [Compound 532, 3-[(4-CHLORO- CYCLOHEXANECARBONYL)-ISOPROPYL- AMINO]-5-PHENYL-THIOPHENE-2- CARBOXYLIC ACID] here?
Answer: < 5 µM

Question: Which IC50 does the source give for `CC(C)N(C(=O)c1ccc(Cl)cc1Cl)c1cc(C2=CCN(C(=O)OCc3ccccc3)CC2)sc1C(=O)O` [Compound 504, 4-(5-CARBOXY-4-[(2,4-DICHLORO- BENZOYL)-ISOPROPYL-AMINO]- THIOPHEN-2-YL)-3,6-DIHYDRO-2#H!- PYRIDINE-1-CARBOXYLIC ACID BENZYL ESTER] here?
Answer: < 5 µM

Question: Which IC50 does the source give for `O=C(O)c1sc(-c2ccccc2)cc1N(C(=O)c1ccc(Cl)cc1Cl)C1CC[C@@H](C(=O)O)C1` (stereo in doubt) [Compound 547, 3-[(3-CARBOXY-CYCLOPENTYL)-(2,4- DICHLORO-BENZOYL)-AMINO]-5- PHENYL-THIOPHENE-2-CARBOXYLIC ACID] here?
Answer: < 5 µM

Question: Which IC50 does the source give for `CN(C(=O)c1cc(-c2ccccc2)sc1C(=O)O)c1ccc(Cl)cc1Cl` [Compound 585, 3-[(2,4-DICHLORO-PHENYL)-METHYL- CARBAMOYL]-5-PHENYL-THIOPHENE-2- CARBOXYLIC ACID] here?
Answer: 5 to 20 µM

Question: With `O=C(O)c1sc(-c2ccccc2)cc1N(Cc1ccccc1)C(=O)CC1CCCC1` [Compound 487, 3-[BENZYL-(2-CYCLOPENTYL-ACETYL)- AMINO]-5-PHENYL-THIOPHENE-2- CARBOXYLIC ACID] as the molecule, how does the IC50 read?
Answer: < 5 µM

Question: `CC(=O)N(Cc1ccc(F)cc1F)c1cc(-c2ccccc2)sc1C(=O)O` [Compound 483, 3-[ACETYL-(2,4-DIFLUORO-BENZYL)- AMINO]-5-PHENYL-THIOPHENE-2- CARBOXYLIC ACID] was tested. Which IC50 did it give?
Answer: 5 to 20 µM

Question: For `O=C(O)c1sc(-c2ccccc2)cc1N(Cc1ccc(C(F)(F)F)cc1)C(=O)C1CCCCC1` [Compound 436, 3-[CYCLOHEXANECARBONYL-(4- TRIFLUOROMETHYL-BENZYL)-AMINO]-5- PHENYL-THIOPHENE-2-CARBOXYLIC ACID], which IC50 is on record?
Answer: < 5 µM

Question: Which IC50 does the source give for `O=C(O)c1sc(-c2ccccc2)cc1N(Cc1ccc(Cl)cc1)C(=O)C1CC1` [Compound 459, 3-[(4-CHLORO-BENZYL)- CYCLOPROPANECARBONYL-AMINO]-5- PHENYL-THIOPHENE-2-CARBOXYLIC ACID] here?
Answer: 5 to 20 µM

Question: `CC(C[NH3+])N(C(=O)c1ccc(Cl)cc1Cl)c1cc(-c2ccccc2)sc1C(=O)O` (stereo not drawn) [Compound 546, 2-[(2-CARBOXY-5-PHENYL-THIOPHEN-3- YL)-(2,4-DICHLORO-BENZOYL)-AMINO]- PROPYL-AMINE TRIFLUOROACETIC ACID SALT] was tested. Which IC50 did it give?
Answer: < 5 µM

Same assay, conditions: IC50

Question: Which IC50 does the source give for `CC1CCC(C(=O)N(c2cc(-c3ccccc3)sc2C(=O)O)C(C)C)CC1` (stereo not drawn) [Compound 316, 3-[ISOPROPYL-(4-METHYL- CYCLOHEXANECARBONYL)-AMINO]-5- PHENYL-THIOPHENE-2-CARBOXYLIC ACID] here?
Answer: > 20 µM

Same assay, conditions: related polymerase activity (Example 27 list); read-out: IC50

Question: How did the IC50 turn out when `CC1CCC(C(=O)N(C)c2cc(-c3ccccc3)sc2C(=O)O)CC1` (stereo not drawn) [Compound 286, 3-[METHYL-(4-METHYL-CYCLOHEXANECARBONYL)-AMINO]-5-PHENYL THIOPHENE-2-CARBOXYLIC ACID] was run?
Answer: < 5 µM

Question: With `Cc1ccc(C(=O)N(c2cc(-c3ccccc3)sc2C(=O)O)C(C)C)cc1F` [Compound 331, 3-[(3-FLUORO-4-METHYL-BENZOYL)- ISOPROPYL-AMINO]-5-PHENYL- THIOPHENE-2-CARBOXYLIC ACID] as the molecule, how does the IC50 read?
Answer: < 5 µM

Question: `Cc1ccccc1S(=O)(=O)Nc1cc(-c2ccc(Cl)cc2)sc1C(=O)O` [Compound 68, 5-(4-CHLORO-PHENYL)-3-(TOLUENE-2-SULFONYLAMINO)-THIOPHENE-2-CARBOXYLIC ACID] was tested. Which IC50 did it give?
Answer: < 5 µM

Question: For `O=C(O)c1sc(-c2ccccc2)cc1NS(=O)(=O)c1ccccc1CCl` [Compound 189, 3-(2-CHLOROMETHYL-BENZENESULFONYLAMINO)-5-PHENYL-THIOPHENE-2-CARBOXYLIC ACID], which IC50 is on record?
Answer: 5 to 20 µM

Question: Which IC50 does the source give for `CCOC(=O)c1c(C)[nH]c(C)c1S(=O)(=O)Nc1cc(-c2ccccc2)sc1C(=O)O` [Compound 167, 4-(2-CARBOXY-5-PHENYL-THIOPHEN-3-YLSULFAMOYL)-2,5-DIMETHYL-1H-PYRROLE-3-CARBOXYLIC ACID ETHYL ESTER] here?
Answer: 5 to 20 µM

Question: Which IC50 does the source give for `Cc1ccc(S(=O)(=O)N(c2cc(-c3ccccc3)sc2C(=O)O)C(C)C)c(C)c1` [Compound 240, 3-[(2,4-DIMETHYL-BENZENESULFONYL)-ISOPROPYL-AMINO]-5-PHENYL-THIOPHENE-2-CARBOXYLIC ACID] here?
Answer: 5 to 20 µM

Question: Which IC50 does the source give for `Cc1ccc(S(=O)(=O)Nc2cc(-c3ccsc3)sc2C(=O)O)cc1` [Compound 11, 4-(TOLUENE-4-SULFONYLAMINO)-[2,3′]BITHIOPHENYL-5-CARBOXYLIC ACID] here?
Answer: 5 to 20 µM

Question: With `Cc1ccc(S(=O)(=O)Nc2cc(-c3ccccc3)sc2C(=O)O)c([N+](=O)[O-])c1` [Compound 177, 3-(4-METHYL-2-NITRO-BENZENESULFONYLAMINO)-5-PHENYL-THIOPHENE-2-CARBOXYLIC ACID] as the molecule, how does the IC50 read?
Answer: 5 to 20 µM

Question: `O=C(O)c1sc(-c2ccccc2)cc1NS(=O)(=O)c1ccc(Cl)cc1` [Compound 18, 3-(4-CHLORO-BENZENESULFONYLAMINO)-5-PHENYL-THIOPHENE-2-CARBOXYLIC ACID] was tested. Which IC50 did it give?
Answer: < 5 µM

Question: For `O=C(O)c1sc(-c2ccccc2)cc1N(C(=O)c1ccc(Cl)cc1Cl)C1CCN(C(=O)c2ccc(Cl)cc2Cl)CC1` [Compound 363, 3-[(2,4-DICHLORO-BENZOYL)-[1-(2,4- DICHLORO-BENZOYL)-PIPERIDIN-4-YL]- AMINO)-5-PHENYL-THIOPHENE-2- CARBOXYLIC ACID], which IC50 is on record?
Answer: < 5 µM

Question: With `O=C(O)c1sc(-c2ccccc2)cc1NS(=O)(=O)c1ccc(Cl)c(Cl)c1` [Compound 34, 3-(3,4-DICHLORO-BENZENESULFONYLAMINO)-5-PHENYL-THIOPHENE-2-CARBOXYLIC ACID] as the molecule, how does the IC50 read?
Answer: 5 to 20 µM

Question: How did the IC50 turn out when `Cc1ccccc1S(=O)(=O)Nc1cc(-c2ccccc2)sc1C(=O)O` [Compound 15, 5-PHENYL-3-(TOLUENE-2-SULFONYLAMINO)-THIOPHENE-2-CARBOXYLIC ACID] was run?
Answer: > 20 µM

Question: How did the IC50 turn out when `O=C(O)c1sc(-c2ccccc2)cc1NS(=O)(=O)c1ccccc1[N+](=O)[O-]` [Compound 45, 3-(2-NITRO-BENZENESULFONYLAMINO)-5-PHENYL-THIOPHENE-2-CARBOXYLIC ACID] was run?
Answer: < 5 µM

Question: For `CC(C(=O)O)N(C(=O)c1ccc(Cl)cc1Cl)c1cc(-c2ccccc2)sc1C(=O)O` (stereo not drawn) [Compound 299, 3-[(1-CARBOXY-ETHYL)-(2,4-DICHLORO- BENZOYL)-AMINO]-5-PHENYL- THIOPHENE-2-CARBOXYLIC ACID], which IC50 is on record?
Answer: < 5 µM

Question: Which IC50 does the source give for `Cc1ccccc1S(=O)(=O)Nc1cc(-c2ccc(Cl)cc2Cl)sc1C(=O)O` [Compound 58, 5-(2,4-DICHLORO-PHENYL)-3-(TOLUENE-2-SULFONYLAMINO)-THIOPHENE-2-CARBOXYLIC ACID] here?
Answer: 5 to 20 µM

Question: For `N#Cc1ccc(-c2cc(NS(=O)(=O)c3ccc(Cl)cc3)c(C(=O)O)s2)cc1` [Compound 289, 3-(4-CHLORO-BENZENESULFONYLAMINO)-5-(4-CYANO-PHENYL)-THIOPHENE-2-CARBOXYLIC ACID], which IC50 is on record?
Answer: < 5 µM

Question: Which IC50 does the source give for `CCCCc1ccc(C(=O)N(C)c2cc(-c3ccccc3)sc2C(=O)O)cc1` [Compound 188, 3-[(4-BUTYL-BENZOYL)-METHYL-AMINO]-5-PHENYL-THIOPHENE-2-CARBOXYLIC ACID] here?
Answer: > 20 µM

Question: `CC(C)N(C(=O)c1ccc(Cl)cc1Cl)c1cc(-c2ccc(F)cc2)sc1C(=O)O` [Compound 356, 3-[(2,4-DICHLORO-BENZOYL)- ISOPROPYL-AMINO]-5-(4-FLUORO- PHENYL)-THIOPHENE-2-CARBOXYLIC ACID] was tested. Which IC50 did it give?
Answer: < 5 µM

Question: For `Cc1ccccc1S(=O)(=O)Nc1cc(-c2ccccc2O)sc1C(=O)O` [Compound 217, 5-(2-HYDROXY-PHENYL)-3-(TOLUENE-2-SULFONYLAMINO)-THIOPHENE-2-CARBOXYLIC ACID], which IC50 is on record?
Answer: 5 to 20 µM

Question: Which IC50 does the source give for `Cc1ccc(S(=O)(=O)N(C)c2cc(-c3ccccc3)sc2C(=O)O)c(C)c1` [Compound 235, 3-[(2,4-DIMETHYL-BENZENESULFONYL)-METHYL-AMINO]-5-PHENYL-THIOPHENE-2-CARBOXYLIC ACID] here?
Answer: < 5 µM

Question: For `O=C(O)c1sc(-c2ccccc2)cc1NS(=O)(=O)c1ccccc1Br` [Compound 76, 3-(2-BROMO-BENZENESULFONYLAMINO)-5-PHENYL-THIOPHENE-2-CARBOXYLIC ACID], which IC50 is on record?
Answer: < 5 µM

Question: How did the IC50 turn out when `Cc1ccc(-c2cc(NS(=O)(=O)c3ccccc3C)c(C(=O)O)s2)nc1` [Compound 184, 5-(5-METHYL-PYRIDIN-2-YL)-3-(TOLUENE-2-SULFONYLAMINO)-THIOPHENE-2-CARBOXYLIC ACID] was run?
Answer: < 5 µM

Question: For `CC(C)N(C(=O)c1ccc(Cl)cc1Cl)c1cc(-c2ccc(C(=O)O)cc2)sc1C(=O)O` [Compound 375, 5-(4-CARBOXY-PHENYL)-3-[(2,4- DICHLORO-BENZOYL)-ISOPROPYL- AMINO]-THIOPHENE-2-CARBOXYLIC ACID], which IC50 is on record?
Answer: < 5 µM

Question: `COc1cc(C)c(S(=O)(=O)Nc2cc(-c3ccccc3)sc2C(=O)O)c(C)c1C` [Compound 22, 3-(4-METHOXY-2,3,6-TRIMETHYL-BENZENESULFONYLAMINO)-5-PHENYL-THIOPHENE-2-CARBOXYLIC ACID] was tested. Which IC50 did it give?
Answer: < 5 µM
